The results in this text go back to patent US20260207578A1, “COMPOUND BASED ON SULFUR/OXYGEN SUBSTITUTED GLUTARIMIDE-BASED ISOINDOLINONE SKELETON AND USE THEREOF” (Gluetacs Therapeutics (Shanghai) Co., LTD., priority 2022, published 2026).

Some results are limits rather than exact numbers.

The target of one test is T1, IKZF1 (Homo sapiens, UniProt Q13422+Q96SW2).
T1 construct: endogenous in cells; host or cells: human PBMCs (Milecell Biotechnologies)
Nature of the test: Western-blot assay, substrate protein in hPBMCs. Particulars: hPBMC cells, 24 hours, tested at 50 nM and 500 nM, table does not say which. Format: cell-based. As to the method: (§1) The effect of the compounds of the present disclosure on the expression of target proteins in cells was detected using conventional Western blot analysis.
(§2) Human peripheral blood mononuclear cells (hPBMCs) at a density of 1×10^6 cells/mL were thawed according to the PBMC Recovery Protocol (Milecell Biotechnologies Inc, Shanghai). The cells were then treated with the compounds of the present disclosure (including the compounds listed in Tables 1 and 2, and the Examples A1-A20 and 1-116 compounds) at concentrations of 50 nM and 500 nM.
(§3) Controls included a negative control (DMSO) and a positive control (the commercial immunomodulatory drug lenalidomide), both processed following the identical experimental protocol as the compounds of the present disclosure. After 24 hours of compounds treatment, cells were harvested and lysed in RIPA protein lysate containing phosphatase inhibitors on ice for 30-60 min, followed by centrifugation. The supernatant was aspirated as the extracted total cell protein. The protein concentration of the supernatant was determined using the conventional BCA (Bicinchoninic Acid) assay. The supernatant was then mixed with 4× SDS sample loading buffer, denatured at 95° C. for 5 minutes, and then subjected to SDS-PAGE electrophoresis on a polyacrylamide gel. Proteins were then transferred to a nitrocellulose (NC) membrane, blocked at room temperature for 1-2 h, and processed for antibody incubation and detection according to the manufacturer's instructions (Cell Signaling Technology).
(§4) Half-Maximal Degradation Concentration value (the drug concentration required for degrading proteins by 50%, abbreviated as DC50) reads method: comparing the grayscale values of Western blot bands from drug-treated samples with those from blank DMSO-treated controls, and identifying the drug concentration range at which the grayscale value is half that of the DMSO-treated control bands.
(§5) DC50 values can be calculated using ImageJ software to measure grayscale values of Western blot bands from drug-treated samples. The concentration-response curve is fitted to estimate the drug concentration corresponding to half the grayscale value.
(§6) Target protein remaining (%) refers to the percentage of target protein remaining in hPBMC cells after treatment with protein degrader compounds.
(§7) Calculation method for protein remaining (%): Use ImageJ software to measure grayscale values of Western blot bands from drug (protein degrader)-treated samples. The grayscale value of drug-treated bands is divided by that of internal control protein bands, and the resulting quotient is normalized to obtain the relative percentage of remaining target protein after protein degrader treatment.
(§8) Target protein degradation rate (%)=100%−target protein remaining (%).

In a further test the target is T2, Wee1 (Homo sapiens, UniProt P30291+Q96SW2).
T2 construct: endogenous in cells; host or cells: human PBMCs (Milecell Biotechnologies)
Nature of the test: Western-blot assay, substrate protein in hPBMCs. Format: cell-based. Particulars: hPBMC cells, 24 hours, tested at 50 nM and 500 nM, table does not say which. Put shortly: (§9)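 Protein levels read by Western blot of lysates from human PBMCs (1×10^6 cells/mL) treated 24 h. Percent remaining is target band over loading-control band, normalised to DMSO-treated cells; DC50 is the concentration halving DMSO-control band intensity, estimated by curve fit.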

Another test deals with T3, IKZF2 (Homo sapiens, UniProt Q96SW2+Q9UKS7).
T3 construct: endogenous in cells; host or cells: human PBMCs (Milecell Biotechnologies)
Nature of the test: Western-blot assay, substrate protein in hPBMCs. Format: cell-based. To be noted: hPBMC cells, 24 hours, tested at 50 nM and 500 nM, table does not say which. The procedure, abridged:
as §9

In a further test the target is T4, CK1α (Homo sapiens, UniProt P48729+Q96SW2).
T4 construct: endogenous in cells; host or cells: human PBMCs (Milecell Biotechnologies)
The experiment in a line: Western-blot assay, substrate protein in hPBMCs. Format: cell-based. Particulars: hPBMC cells, 24 hours, tested at 50 nM and 500 nM, table does not say which. The procedure, abridged:
as §9

The target of a further test is T5, GSPT1 (Homo sapiens, UniProt P15170+Q96SW2).
T5 construct: endogenous in cells; host or cells: human PBMCs (Milecell Biotechnologies)
Nature of the test: Western-blot assay, substrate protein in hPBMCs. Format: cell-based. Particulars: hPBMC cells, 24 hours, tested at 50 nM and 500 nM, table does not say which. The procedure, abridged:
as §9

Test [1] concerns the target T6, human Cereblon WT GST-tagged protein (Homo sapiens, UniProt Q96SW2).
T6 construct: purchased CISBIO 64BDCRBNPEH
The experiment in a line: CRBN-binding affinity, HTRF (CEREBLON BINDING kit). Particulars: displacement of Thalidomide-Re reagent, 3 hours at room temperature. Put shortly: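 HTRF competition format: compound, GST-tagged wild-type human Cereblon, Thalidomide-Re tracer and GST Eu antibody were combined in PROTAC binding buffer. Binding was derived from emission at 620 nm relative to blank and solvent control wells.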

The target in another test is T7, IKZF3 (Homo sapiens, UniProt Q96SW2+Q9UKT9).
T7 construct: endogenous in cells; host or cells: human PBMCs (Milecell Biotechnologies)
Nature of the test: Western-blot assay, substrate protein in hPBMCs. Format: cell-based. To be noted: hPBMC cells, 24 hours, tested at 50 nM and 500 nM, table does not say which. The method, then:
as §1, §2, §3, §4, §5, §6, §7, §8

T5 sequence (P15170 whole entry): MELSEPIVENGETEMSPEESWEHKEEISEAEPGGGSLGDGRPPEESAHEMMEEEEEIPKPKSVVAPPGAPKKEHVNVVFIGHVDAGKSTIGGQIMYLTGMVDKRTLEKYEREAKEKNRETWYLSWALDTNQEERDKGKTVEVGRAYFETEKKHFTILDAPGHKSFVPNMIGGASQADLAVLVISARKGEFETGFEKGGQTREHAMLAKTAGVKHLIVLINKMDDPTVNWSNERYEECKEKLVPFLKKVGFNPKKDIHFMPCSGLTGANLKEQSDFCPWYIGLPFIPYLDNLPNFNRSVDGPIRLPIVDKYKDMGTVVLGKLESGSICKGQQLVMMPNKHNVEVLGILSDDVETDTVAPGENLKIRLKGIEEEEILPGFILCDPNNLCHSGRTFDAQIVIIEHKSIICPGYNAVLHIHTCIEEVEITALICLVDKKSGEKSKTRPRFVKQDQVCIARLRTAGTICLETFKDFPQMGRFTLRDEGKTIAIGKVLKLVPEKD
T5 sequence (Q96SW2 whole entry): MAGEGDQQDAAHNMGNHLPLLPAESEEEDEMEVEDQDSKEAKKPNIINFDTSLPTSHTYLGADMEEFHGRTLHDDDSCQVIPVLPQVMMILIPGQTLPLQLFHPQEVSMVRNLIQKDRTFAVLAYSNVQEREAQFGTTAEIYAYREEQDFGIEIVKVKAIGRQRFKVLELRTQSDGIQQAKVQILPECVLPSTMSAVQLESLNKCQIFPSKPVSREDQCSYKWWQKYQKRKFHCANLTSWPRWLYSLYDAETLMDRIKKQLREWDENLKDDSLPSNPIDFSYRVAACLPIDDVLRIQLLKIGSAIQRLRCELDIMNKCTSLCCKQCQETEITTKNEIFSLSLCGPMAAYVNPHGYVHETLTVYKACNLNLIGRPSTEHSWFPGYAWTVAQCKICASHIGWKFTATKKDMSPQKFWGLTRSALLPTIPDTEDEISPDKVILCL
T5 sequence (Q16531 whole entry partner): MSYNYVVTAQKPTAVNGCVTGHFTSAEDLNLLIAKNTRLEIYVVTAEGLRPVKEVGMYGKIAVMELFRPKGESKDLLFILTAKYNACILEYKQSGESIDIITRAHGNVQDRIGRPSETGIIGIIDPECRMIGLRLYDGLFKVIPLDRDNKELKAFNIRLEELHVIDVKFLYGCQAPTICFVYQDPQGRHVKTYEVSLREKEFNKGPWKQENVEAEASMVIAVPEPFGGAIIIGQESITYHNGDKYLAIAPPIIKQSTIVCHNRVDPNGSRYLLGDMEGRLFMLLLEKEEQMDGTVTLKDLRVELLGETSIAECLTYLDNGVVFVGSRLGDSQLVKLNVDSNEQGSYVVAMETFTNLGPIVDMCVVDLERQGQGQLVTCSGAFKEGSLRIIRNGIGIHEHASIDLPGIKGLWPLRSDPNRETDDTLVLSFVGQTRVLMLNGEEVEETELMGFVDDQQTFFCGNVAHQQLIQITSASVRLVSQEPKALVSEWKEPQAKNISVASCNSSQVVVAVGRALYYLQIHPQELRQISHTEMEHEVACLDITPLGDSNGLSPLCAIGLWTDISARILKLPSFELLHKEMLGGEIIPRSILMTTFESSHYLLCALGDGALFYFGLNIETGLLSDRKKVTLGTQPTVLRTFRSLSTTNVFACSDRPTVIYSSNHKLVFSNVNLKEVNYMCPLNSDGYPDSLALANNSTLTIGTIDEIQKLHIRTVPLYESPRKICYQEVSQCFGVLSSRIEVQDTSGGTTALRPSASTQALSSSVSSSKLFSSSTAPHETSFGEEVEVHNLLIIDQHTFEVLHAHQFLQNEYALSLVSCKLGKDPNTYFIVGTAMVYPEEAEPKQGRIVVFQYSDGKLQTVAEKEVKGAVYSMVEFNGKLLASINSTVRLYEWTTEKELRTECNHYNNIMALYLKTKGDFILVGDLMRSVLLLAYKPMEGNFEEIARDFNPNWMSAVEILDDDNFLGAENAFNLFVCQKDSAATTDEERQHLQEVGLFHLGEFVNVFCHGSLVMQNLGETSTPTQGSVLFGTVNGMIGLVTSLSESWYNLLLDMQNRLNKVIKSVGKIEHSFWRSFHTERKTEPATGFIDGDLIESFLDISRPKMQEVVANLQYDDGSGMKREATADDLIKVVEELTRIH
T4 sequence (P48729 whole entry): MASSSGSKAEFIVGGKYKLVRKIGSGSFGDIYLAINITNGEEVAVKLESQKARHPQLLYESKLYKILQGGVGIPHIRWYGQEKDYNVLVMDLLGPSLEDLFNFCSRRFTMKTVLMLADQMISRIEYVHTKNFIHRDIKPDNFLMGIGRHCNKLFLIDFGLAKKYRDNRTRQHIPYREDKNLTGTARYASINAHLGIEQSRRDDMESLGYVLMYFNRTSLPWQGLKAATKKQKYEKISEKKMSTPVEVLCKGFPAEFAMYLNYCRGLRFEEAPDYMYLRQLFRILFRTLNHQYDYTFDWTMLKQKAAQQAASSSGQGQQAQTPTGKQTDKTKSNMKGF
T4 sequence (Q96SW2 whole entry): as the sequence (Q96SW2 whole entry) above
T4 sequence (Q16531 whole entry partner): as the sequence (Q16531 whole entry partner) above
T3 sequence (Q9UKS7 whole entry): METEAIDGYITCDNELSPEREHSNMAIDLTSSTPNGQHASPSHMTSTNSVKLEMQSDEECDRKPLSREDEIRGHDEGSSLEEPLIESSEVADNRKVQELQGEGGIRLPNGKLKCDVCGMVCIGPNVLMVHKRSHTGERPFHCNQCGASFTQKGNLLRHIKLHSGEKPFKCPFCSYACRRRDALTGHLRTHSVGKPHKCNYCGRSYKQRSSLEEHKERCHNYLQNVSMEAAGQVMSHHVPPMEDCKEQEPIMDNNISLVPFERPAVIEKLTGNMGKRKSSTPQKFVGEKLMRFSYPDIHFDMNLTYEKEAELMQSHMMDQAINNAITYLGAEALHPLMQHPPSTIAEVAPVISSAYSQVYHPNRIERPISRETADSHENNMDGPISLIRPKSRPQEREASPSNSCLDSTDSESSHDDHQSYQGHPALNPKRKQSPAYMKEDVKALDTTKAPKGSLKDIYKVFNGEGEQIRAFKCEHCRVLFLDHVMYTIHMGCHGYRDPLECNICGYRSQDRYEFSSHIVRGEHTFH
T3 sequence (Q96SW2 whole entry): as the sequence (Q96SW2 whole entry) above
T3 sequence (Q16531 whole entry partner): as the sequence (Q16531 whole entry partner) above
T7 sequence (Q9UKT9 whole entry): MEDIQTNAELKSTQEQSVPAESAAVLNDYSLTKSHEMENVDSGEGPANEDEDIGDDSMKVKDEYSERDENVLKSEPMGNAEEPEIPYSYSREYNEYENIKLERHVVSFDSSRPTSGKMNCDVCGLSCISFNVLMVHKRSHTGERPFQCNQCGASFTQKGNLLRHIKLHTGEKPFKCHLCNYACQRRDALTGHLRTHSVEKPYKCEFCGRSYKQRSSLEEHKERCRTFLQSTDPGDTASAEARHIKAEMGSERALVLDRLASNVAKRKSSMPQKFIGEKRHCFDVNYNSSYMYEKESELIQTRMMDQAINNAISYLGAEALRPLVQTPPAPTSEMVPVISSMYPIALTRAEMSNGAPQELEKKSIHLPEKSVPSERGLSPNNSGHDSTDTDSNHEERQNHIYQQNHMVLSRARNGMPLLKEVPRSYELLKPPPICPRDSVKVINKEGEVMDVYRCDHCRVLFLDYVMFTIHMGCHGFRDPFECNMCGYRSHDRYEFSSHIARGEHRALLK
T7 sequence (Q96SW2 whole entry): as the sequence (Q96SW2 whole entry) above
T7 sequence (Q16531 whole entry partner): as the sequence (Q16531 whole entry partner) above
T6 sequence (Q96SW2 whole entry): as the sequence (Q96SW2 whole entry) above
T2 sequence (P30291 whole entry): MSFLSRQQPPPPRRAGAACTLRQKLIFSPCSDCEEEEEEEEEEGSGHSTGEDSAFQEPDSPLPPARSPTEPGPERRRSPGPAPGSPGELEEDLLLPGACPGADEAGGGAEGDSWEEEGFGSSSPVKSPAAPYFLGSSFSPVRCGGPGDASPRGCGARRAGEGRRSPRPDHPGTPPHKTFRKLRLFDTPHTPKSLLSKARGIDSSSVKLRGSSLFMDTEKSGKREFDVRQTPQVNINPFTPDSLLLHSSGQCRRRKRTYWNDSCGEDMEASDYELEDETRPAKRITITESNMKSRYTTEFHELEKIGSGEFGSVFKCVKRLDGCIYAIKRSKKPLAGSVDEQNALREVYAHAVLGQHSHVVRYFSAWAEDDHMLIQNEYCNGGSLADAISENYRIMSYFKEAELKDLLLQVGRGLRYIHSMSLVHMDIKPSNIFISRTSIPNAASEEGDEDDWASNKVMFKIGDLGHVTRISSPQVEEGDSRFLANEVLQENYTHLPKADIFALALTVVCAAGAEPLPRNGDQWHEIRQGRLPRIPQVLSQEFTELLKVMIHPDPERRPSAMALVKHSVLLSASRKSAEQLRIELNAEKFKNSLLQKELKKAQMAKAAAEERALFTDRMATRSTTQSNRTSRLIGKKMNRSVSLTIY
T2 sequence (Q96SW2 whole entry): as the sequence (Q96SW2 whole entry) above
T2 sequence (Q16531 whole entry partner): as the sequence (Q16531 whole entry partner) above

Take `O=C1CCC(N2Cc3cc(SC4CNC4)ccc3C2=O)C(=O)N1` (stereo not shown) [GT-03613, 3-(5-(azetidin-3-ylthio)-1-oxoisoindolin-2-yl)piperidine-2,6-dione]: the “substrate protein remaining %” value on IKZF1, on Wee1, on IKZF2, on CK1α and on GSPT1 was “A (0%≤ substrate protein remaining % ≤80%)” each time. Besides, the IC50 (commonly the concentration needed to halve the response being measured) in test [1] was less than 500 nM.

In the case of `O=C1CCC(N2Cc3cc(SC4CCNCC4)ccc3C2=O)C(=O)N1` (stereo not shown) [GT-03616, 3-(1-oxo-5-(piperidin-4-ylthio)isoindolin-2-yl)piperidine-2,6-dione], the “substrate protein remaining %” value at IKZF1, on IKZF2, on CK1α and on GSPT1 was “A (0%≤ substrate protein remaining % ≤80%)” throughout. In test [1], this molecule had an IC50 of 1000 to 1900 nM.

Turning to `O=C1CCC(N2Cc3cc(SC4CCN(C(=O)c5ccccc5-c5ccc(Cl)cc5)C4)ccc3C2=O)C(=O)N1` (stereo not shown) [GT-06181, 3-(5-((1-(4′-chloro-[1,1′-biphenyl]-2-carbonyl)pyrrolidin-3-yl)thio)-1-oxoisoindolin-2-yl)piperidine-2,6-dione], the “substrate protein remaining %” value at IKZF3, at Wee1 and at GSPT1 was “A (0%≤ substrate protein remaining % ≤80%)” in each case. The IC50 in test [1] is less than 500 nM.

Take `O=C1CCC(N2Cc3cc(SC4CCN(C(c5ccccc5)c5ccccc5)CC4)ccc3C2=O)C(=O)N1` (stereo not shown) [GT-06184, 3-(5-((1-benzhydrylpiperidin-4-yl)thio)-1-oxoisoindolin-2-yl)piperidine-2,6-dione]: the “substrate protein remaining %” value at IKZF3 and on GSPT1 was “A (0%≤ substrate protein remaining % ≤80%)” throughout. For the same molecule, the IC50 in test [1] lay within 500 to 1000 nM.

For the molecule `O=C1CCC(N2Cc3cc(SC4CN(C(c5ccc(F)cc5)c5ccc(F)cc5)C4)ccc3C2=O)C(=O)N1` (stereo not shown) [GT-06503, 3-(5-((1-(bis(4-fluorophenyl)methyl)azetidin-3-yl)thio)-1-oxoisoindolin-2-yl)piperidine-2,6-dione], the “substrate protein remaining %” value on IKZF1, at Wee1, at CK1α and at GSPT1 was “A (0%≤ substrate protein remaining % ≤80%)” throughout. For the same molecule, the 50% inhibitory concentration (IC50) in test [1] was in the range of 500 to 1000 nM.

As for `O=C1CCC(N2Cc3cc(OC4CN(CC5=C(c6ccc(F)cc6)CCOC5)C4)ccc3C2=O)C(=O)N1` (stereo not shown) [GT-06560, 3-(5-((1-((4-(4-fluorophenyl)-5,6-dihydro-2H-pyran-3-yl)methyl)azetidin-3-yl)oxy)-1-oxoisoindolin-2-yl)piperidine-2,6-dione], the “substrate protein remaining %” value on IKZF3 and on Wee1 was “A (0%≤ substrate protein remaining % ≤80%)” each time. In test [1], this molecule returned a 50% inhibitory concentration (IC50) of 500 to 1000 nM.

Consider `O=C1CCC(N2Cc3cc(OC4CN(C(c5ccccc5)c5cccnc5)C4)ccc3C2=O)C(=O)N1` (stereo not shown) [GT-06760, 3-(1-oxo-5-((1-(phenyl(pyridin-3-yl)methyl)azetidin-3-yl)oxy)isoindolin-2-yl)piperidine-2,6-dione], for which the “substrate protein remaining %” value at IKZF1, on Wee1 and on IKZF2 was “A (0%≤ substrate protein remaining % ≤80%)” throughout. The molecule also had an IC50 in test [1] of less than 500 nM.

As to `O=C1CCC(N2Cc3cc(SC4CN(Cc5ccc(-c6ccncc6)nc5)C4)ccc3C2=O)C(=O)N1` (stereo not shown) [GT-06808, 3-(5-((1-([2,4′-bipyridin]-5-ylmethyl)azetidin-3-yl)thio)-1-oxoisoindolin-2-yl)piperidine-2,6-dione], the “substrate protein remaining %” value on IKZF1, at Wee1, at IKZF2 and at CK1α was “A (0%≤ substrate protein remaining % ≤80%)” each time. For the same molecule, the IC50 in test [1] lay within 500 to 1000 nM.

In the case of `O=C1CCC(N2Cc3cc(OC4CC5CN(C(=O)c6ccccc6-c6ccc(Cl)cc6)CC5C4)ccc3C2=O)C(=O)N1` (stereo not shown) [GT-06954, 3-(5-((2-(4′-chloro-[1,1′-biphenyl]-2-carbonyl)octahydro-cyclopenta[c]pyrrol-5-yl)oxy)-1-oxoisoindolin-2-yl)piperidine-2,6-dione], the “substrate protein remaining %” value at IKZF1, at Wee1, on IKZF2 and at GSPT1 was “A (0%≤ substrate protein remaining % ≤80%)” throughout. The IC50 in test [1] was less than 500 nM.

Regarding `O=C1CCC(N2Cc3cc(SC4CCC5(CC4)CCN(C(c4ccccc4)c4ccccc4)CC5)ccc3C2=O)C(=O)N1` (stereo not shown) [GT-06958, 3-(5-((3-benzhydryl-3-azaspiro[5.5]undecan-9-yl)thio)-1-oxoisoindolin-2-yl)piperidine-2,6-dione], the “substrate protein remaining %” value at IKZF3, on Wee1, at CK1α and at GSPT1 was “A (0%≤ substrate protein remaining % ≤80%)” throughout. The same molecule displayed an IC50 in test [1] of less than 500 nM.

On to `COc1ccc(C(c2ccc(OC)cc2)N2CC(Oc3ccc4c(c3)CN(C3CCC(=O)NC3=O)C4=O)C2)cc1` (stereo not shown) [GT-06959, 3-(5-((1-(bis(4-methoxyphenyl)methyl)azetidin-3-yl)oxy)-1-oxoisoindolin-2-yl)piperidine-2,6-dione], for which the “substrate protein remaining %” value on IKZF3, on Wee1, on CK1α and at GSPT1 was “A (0%≤ substrate protein remaining % ≤80%)” throughout. Moreover, the IC50 in test [1] was less than 500 nM.

In the case of `O=C1CCC(N2Cc3cccc(SC4CNC4)c3C2=O)C(=O)N1` (stereo not shown) [GT-06994, 3-(7-(azetidin-3-ylthio)-1-oxoisoindolin-2-yl)piperidine-2,6-dione], the “substrate protein remaining %” value at IKZF1 and at IKZF2 was “A (0%≤ substrate protein remaining % ≤80%)” in each case.

`CC1(C)CCC(C(=O)N2C[C@H]3CC(Sc4ccc5c(c4)CN(C4CCC(=O)NC4=O)C5=O)C[C@@H]3C2)=C(c2ccc(Cl)cc2)C1` (stereo partly drawn) [GT-07022, 3-(5-(((3aS,6aS)-2-(4′-chloro-5,5-dimethyl-3,4,5,6-tetrahydro-[1,1′-biphenyl]-2-carbonyl)octahydro-cyclopenta[c]pyrrol-5-yl)thio)-1-oxoisoindolin-2-yl)piperidine-2,6-dione]: the “substrate protein remaining %” value at IKZF3 and on CK1α was “A (0%≤ substrate protein remaining % ≤80%)” each time. The IC50 in test [1] lay within 500 to 1000 nM.
